Assay results published in US10800752B2, “Substituted naphtho[2,3-b]furans as water-soluble prodrugs for preventing and/or treating cancer” (BOSTON BIOMEDICAL, INC., priority 2015, dated 2020).
Counter-ions that a name gives are not always drawn. Values belong to the compound of their own block, whether it stands above or below them.

Legend:
[1] = type: in vivo, CD1 (ICR) mice; details: orally administered to mice
From the text: It was then centrifuged to obtain plasma.

Solubility test = details: for solubility at 24 hours: pH 2, aqueous buffer, thermodynamic from solid
Experimental: A water-soluble prodrug was added into 50 mmol/L glycine buffer solution (pH 2.0). After shaking at room temperature for 24 hours, the mixture was filtered through a membrane filter, and then the filtrate was measured with HPLC.
The measurement condition of HPLC is as described below. HPLC condition column: Acquity UPLC BEH C18, 1.7 um, 50×2.1 mm

[2] = Pharmacokinetics test, intravenous administration; details: intravenously administered to mice
Experimental: For water-soluble prodrugs described in the EXAMPLES, the concentration of 2-acetylnaphtho[2,3-b]furan-4,9-dione (Activated form 1) in plasma was measured. Animal species, an administration method, a method of making standard solutions, and a method of measuring the concentration in plasma are as described below.
Animal: Seven-week-aged male CD1 (ICR) mice were used as an experimental animal.
Administration method: A test substance was weighed, and then dissolved in 50 mmol/L glycine buffered saline (pH 2.0) to produce an administration solution. The body weight of a mouse was measured, and the prepared administration solution was intravenously administered.
Blood collecting method: Heparin was added to a blood-collecting vessel, and blood was collected from a mouse. To the obtained blood, 46% of Citric acid was added in 1% volume. It was then centrifuged to obtain plasma. To the collected plasma, 1 mol/L HCl was added in 10% volume to produce a plasma sample. A sample obtained by adding 10% volume of 1 mol/L HCl to blank plasma was used as a blank sample.
Making of a standard solution: One mg of a test sample was weighed, and dissolved in 10 mL of acetonitrile using a measuring flask to make a standard solution of 100 ug/mL.
Measurement of the concentration in plasma: One hundred ug/mL of the standard solution was diluted in 50% acetonitrile solution to make calibration curve samples of target concentrations. Twenty uL of a blank sample was added to 18 uL of the calibration curve sample to make a plasma calibration curve sample. Eighteen uL of 50% acetonitrile solution was added to 20 uL of the administered plasma sample to make a sample for plasma analysis. One hundred uL of acetonitrile (containing 1% volume of 10 mol/L HCl) containing an internal standard was added to the plasma calibration curve sample and the sample for plasma analysis, respectively. It should be noted that phenytoin was used as the internal standard and its concentration was prepared in 100 nmol/L. 10 uL of each sample was analyzed with LC-MS. A calibration curve was made from a value (peak ratio) of the peak area of a test substance in MS divided by the peak area of the internal standard, and the concentrations of plasma calibration curve samples. The concentration in a sample was calculated from the peak ratio of each sample and the calibration curve.

[3] = Evaluation of a conversion rate to 2-acetylnaphtho[2,3-b]furan-4,9-dione in pH 7.4 phosphate buffer solution; type: physicochemical; details: Phosphate buffer solution (pH 7.4), 1 umol/L, 37° C., incubation time 120 min
How it was run: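 Compounds at 1 umol/L were incubated at 37° C in human plasma, CD1 mouse plasma or pH 7.4 phosphate buffer, sampled up to 120 minutes, acid/acetonitrile-deproteinised and analysed by LC-MS (ESI positive). Conversion (%) derived from the peak area ratio of the active form to phenytoin internal standard.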

[4] = Evaluation of a conversion rate to 2-acetylnaphtho[2,3-b]furan-4,9-dione in CD1 mouse plasma; type: in vitro ADME; details: 1 umol/L
Experimental: For test compounds, the decrease rate of the test compounds and the conversion rate thereof to 2-acetylnaphtho[2,3-b]furan-4,9-dione in human plasma, CD1 mouse plasma, and pH 7.4 phosphate buffer solution were measured.
Test compounds were incubated at the concentration of 1 umol/L in human plasma (cat. no. 12250210, COSMO BIO), CD1 mouse plasma (cat. no. AP3054, KAC), and phosphate buffer solution at 37° C., and removed at predetermined times (0, 5, 10, 30, 60, and 120 minutes). After protein-removing treatment was performed, they are analyzed with LC-MS. It should be noted that the protein-removing treatment used acetonitrile containing: 10% volume of 1 mol/L hydrochloric acid; 1% volume of 46% citric acid; and phenytoin as an internal standard.
The measurement condition of LC-MS is as described below. LC-MS condition column: Kinetex 2.6 u PFP 100 A 50×2.1 mm Column temperature: 40° C.
Mobile phase: A: 0.1% formic acid-containing water
• B: 0.1% formic acid-containing acetonitrile A/B(min): 95/5(0)→5/95(3)→5/95(4)→95/5(4.1)→95/5(6) Flow rate: 0.4 mL/min Detection: ESI (positive mode) Injection volume: 10 uL
Measurement values are calculated from the peak area ratio in LC-MS between an internal standard material, phenytoin and an active form, 2-acetylnaphtho[2,3-b]furan-4,9-dione, and are expressed in %.
In the same way as Example 6, the incubation time was set as 120 minutes later, and the conversion rate of each of various test compounds to 2-acetylnaphtho[2,3-b]furan-4,9-dione in human plasma, CD1 mouse plasma, and pH 7.4 phosphate buffer solution was measured. A series of the present compounds were confirmed to be converted to 2-acetylnaphtho[2,3-b]furan-4,9-dione in pH 7.4 phosphate buffer solution in addition to human plasma and CD1 mouse plasma. Therefore, a series of the test compounds of the present invention were confirmed to be converted to the activated form via a route other than an enzymatic conversion.

Solution stability test = type: physicochemical; details: for % Residual ratio: 25 umol/L
Experimental: For Example 6, Example 11, and Example 22, the stability in each pH was measured. Test compounds at a concentration of 25 umol/L in respective buffer solutions prepared at pH 2.0, 3.0, 5.0, 7.4, and 9.0 were allowed to stand at 25° C. After 0, 3, 6, 9, 12, and 24 hours, they were measured with HPLC.
The buffer solutions used at respective pHs are as described below. pH 2.0: 50 mmol/L glycine buffer solution pH 3.0: 50 mmol/L citrate buffer solution pH 5.0: 50 mmol/L citrate buffer solution pH 7.4: 50 mmol/L phosphate buffer solution pH 9.0: 50 mmol/L glycine buffer solution
The measurement condition of HPLC is as described below.
Column temperature: 40° C.
Mobile phase: A: 0.1% trifluoroacetic acid-containing water

[5] = Evaluation of a conversion rate to 2-acetylnaphtho[2,3-b]furan-4,9-dione in human plasma; type: in vitro ADME; details: 1 umol/L
How it was run: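 Compounds at 1 umol/L incubated at 37° C in human plasma, CD1 mouse plasma or pH 7.4 phosphate buffer, sampled up to 120 minutes. After acidified acetonitrile protein removal, parent loss and conversion to 2-acetylnaphtho[2,3-b]furan-4,9-dione measured by LC-MS (ESI positive).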

[6] = CD1 mouse plasma, 37° C., incubation time 120 min
[7] = 50 mmol/L glycine buffer solution (pH 2.0), room temperature, 24 hours shaking
[8] = Human plasma, 37° C., incubation time 120 min

Compound: CC(=O)c1cc2c(OC(=O)NCCNCC(=O)O)c3ccccc3c(OC(=O)NCCNCC(=O)O)c2o1 [Example 4, 2,2′-((((((2-Acetylnaphtho[2,3-b]furan-4,9-diyl)bis(oxy))bis(carbonyl))bis(azanediyl))bis(ethane-2,1-diyl))bis(azanediyl))diacetic acid dihydrochloride]
concentration of 2-acetylnaphtho[2,3-b]furan-4,9-dione (Activated form 1) observed (in words) [1]: high concentration
solubility at 24 hours (Solubility test; Solubility in pH 2.0 buffer solution, 50 mmol/L glycine buffer solution (pH 2.0), room temperature, 24 hours shaking): > 5000 µg/mL
production of 2-acetylnaphtho[2,3-b]furan-4,9-dione (Activated form 1) (in words) [2]: rapidly produced
% Measurement value (conversion rate to 2-acetylnaphtho[2,3-b]furan-4,9-dione) ([3]; dihydrochloride): 53%

Compound: CC(=O)c1cc2c(OC(=O)NCCNCCC(=O)O)c3ccccc3c(OC(=O)NCCNCCC(=O)O)c2o1 [Example 5, 3,3′-((((((2-Acetylnaphtho[2,3-b]furan-4,9-diyl)bis(oxy))bis(carbonyl))bis-(azanediyl))bis(ethane-2,1-diyl))bis(azanediyl))dipropionic acid dihydrochloride]
concentration of 2-acetylnaphtho[2,3-b]furan-4,9-dione (Activated form 1) observed (in words) [1]: high concentration
production of 2-acetylnaphtho[2,3-b]furan-4,9-dione (Activated form 1) (in words) [2]: rapidly produced
% Measurement value (conversion rate to 2-acetylnaphtho[2,3-b]furan-4,9-dione) ([3]; dihydrochloride): 70%

% Measurement value (conversion rate to 2-acetylnaphtho[2,3-b]furan-4,9-dione) ([4]; CD1, mouse, 120 min): 56%
solubility at 24 hours (Solubility test; glycine buffer solution): > 5000 µg/mL
stability in solution (in words) (Solution stability test; pH 2.0, 25° C.): sufficient stability
% Residual ratio (Solution stability test; pH 2.0, 25° C., 0 hr): 100%
% Residual ratio (Solution stability test; pH 2.0, 25° C., 3 hr): 97.0%
% Residual ratio (Solution stability test; pH 2.0, 25° C., 6 hr): 96.3%
% Residual ratio (Solution stability test; pH 2.0, 25° C., 9 hr): 97.8%
% Residual ratio (Solution stability test; pH 2.0, 25° C., 12 hr): 97.1%
% Residual ratio (Solution stability test; pH 2.0, 25° C., 24 hr): 91.8%
stability in solution (in words) (Solution stability test; pH 3.0, 25° C.): sufficient stability
% Residual ratio (Solution stability test; pH 3.0, 25° C., 0 hr): 100%
% Residual ratio (Solution stability test; pH 3.0, 25° C., 3 hr): 98.6%
% Residual ratio (Solution stability test; pH 3.0, 25° C., 6 hr): 97.8%
% Residual ratio (Solution stability test; pH 3.0, 25° C., 9 hr): 96.9%
% Residual ratio (Solution stability test; pH 3.0, 25° C., 12 hr): 96.0%
% Residual ratio (Solution stability test; pH 3.0, 25° C., 24 hr): 92.6%
% Residual ratio (Solution stability test; pH 5.0, 25° C., 0 hr): 100%
% Residual ratio (Solution stability test; pH 5.0, 25° C., 3 hr): 81.2%
% Residual ratio (Solution stability test; pH 5.0, 25° C., 6 hr): 69.4%
% Residual ratio (Solution stability test; pH 5.0, 25° C., 9 hr): 58.8%
% Residual ratio (Solution stability test; pH 5.0, 25° C., 12 hr): 49.7%
% Residual ratio (Solution stability test; pH 5.0, 25° C., 24 hr): 24.5%
% Residual ratio (Solution stability test; pH 7.4, 25° C., 0 hr): 100%
% Residual ratio (Solution stability test; pH 7.4, 25° C., 3 hr): 0%
% Residual ratio (Solution stability test; pH 7.4, 25° C., 6 hr): 0%
% Residual ratio (Solution stability test; pH 7.4, 25° C., 9 hr): 0%
% Residual ratio (Solution stability test; pH 7.4, 25° C., 12 hr): 0%
% Residual ratio (Solution stability test; pH 7.4, 25° C., 24 hr): 0%
% Residual ratio (Solution stability test; pH 9.0, 25° C., 0 hr): 100%
% Residual ratio (Solution stability test; pH 9.0, 25° C., 3 hr): 0%
% Residual ratio (Solution stability test; pH 9.0, 25° C., 6 hr): 0%
% Residual ratio (Solution stability test; pH 9.0, 25° C., 9 hr): 0%
% Residual ratio (Solution stability test; pH 9.0, 25° C., 12 hr): 0%
% Residual ratio (Solution stability test; pH 9.0, 25° C., 24 hr): 0%
% Measurement value (conversion rate to 2-acetylnaphtho[2,3-b]furan-4,9-dione) ([5]; human, 120 min): 37%
% Measurement value (conversion rate to 2-acetylnaphtho[2,3-b]furan-4,9-dione) [3]: 22%
Compound: CC(=O)c1cc2c(OC(=O)OCCC[C@H](N)C(=O)O)c3ccccc3c(OC(=O)OCCC[C@H](N)C(=O)O)c2o1 [Example 22]

solubility at 24 hours (Solubility test; glycine buffer solution): > 5000 µg/mL
production of 2-acetylnaphtho[2,3-b]furan-4,9-dione (Activated form 1) (in words) [2]: rapidly produced
Compound: CC(=O)c1cc2c(OC(=O)OCCCCNCC(=O)O)c3ccccc3c(OC(=O)OCCCCNCC(=O)O)c2o1 [Example 23, 2,2′-((((((2-Acetylnaphtho[2,3-b]furan-4,9-diyl)bis(oxy)bis(carbonyl))bis(oxy))bis(butane-4,1-diyl))bis(azanediyl)diacetic acid dihydrochloride]

Compound: CC(=O)c1cc2c(OC(=O)NCCCCCCCCN)c3ccccc3c(O)c2o1.Cl [Example 75]
% Measurement value (conversion rate to 2-acetylnaphtho[2,3-b]furan-4,9-dione) [4, 6]: 60%
Solubility in pH 2.0 buffer solution (Solubility test; [7]): 0.1 mg/mL
% Measurement value (conversion rate to 2-acetylnaphtho[2,3-b]furan-4,9-dione) [5, 8]: 79%
% Measurement value (conversion rate to 2-acetylnaphtho[2,3-b]furan-4,9-dione) [3]: 45%

Compound: CC(=O)c1cc2c(OC(=O)NCCCCCNCC(=O)O)c3ccccc3c(O)c2o1.Cl [Example 76]
% Measurement value (conversion rate to 2-acetylnaphtho[2,3-b]furan-4,9-dione) [4, 6]: 71%
Solubility in pH 2.0 buffer solution (Solubility test; [7]): 0.4 mg/mL
% Measurement value (conversion rate to 2-acetylnaphtho[2,3-b]furan-4,9-dione) [5, 8]: 68%
% Measurement value (conversion rate to 2-acetylnaphtho[2,3-b]furan-4,9-dione) [3]: 57%

Compound: CC(=O)c1cc2c(OC(=O)NCCCNCC(=O)O)c3ccccc3c(O)c2o1.Cl [Example 77]
% Measurement value (conversion rate to 2-acetylnaphtho[2,3-b]furan-4,9-dione) [4, 6]: 70%
Solubility in pH 2.0 buffer solution (Solubility test; [7]): 0.5 mg/mL
% Measurement value (conversion rate to 2-acetylnaphtho[2,3-b]furan-4,9-dione) [5, 8]: 68%
% Measurement value (conversion rate to 2-acetylnaphtho[2,3-b]furan-4,9-dione) [3]: 66%

Compound: CC(=O)c1cc2c(O)c3ccccc3c(OC(=O)NCCNCC(=O)O)c2o1.Cl [Example 78]
% Measurement value (conversion rate to 2-acetylnaphtho[2,3-b]furan-4,9-dione) [4, 6]: 66%
Solubility in pH 2.0 buffer solution (Solubility test; [7]): 0.1 mg/mL
% Measurement value (conversion rate to 2-acetylnaphtho[2,3-b]furan-4,9-dione) [5, 8]: 54%
% Measurement value (conversion rate to 2-acetylnaphtho[2,3-b]furan-4,9-dione) [3]: 43%

Compound: CC(=O)c1cc2c(O)c3ccccc3c(OC(=O)NCCNCC(=O)NCC(=O)O)c2o1.Cl [Example 83]
% Measurement value (conversion rate to 2-acetylnaphtho[2,3-b]furan-4,9-dione) [4, 6]: 67%
Solubility in pH 2.0 buffer solution (Solubility test; [7]): >5.0 mg/mL
% Measurement value (conversion rate to 2-acetylnaphtho[2,3-b]furan-4,9-dione) [5, 8]: 67%
% Measurement value (conversion rate to 2-acetylnaphtho[2,3-b]furan-4,9-dione) [3]: 31%
